In patent US5006554A, “Organotin compounds” (The United States of America as represented by the …, priority 1989, dated 1991):

Legend:
[1] = Stability and chemical reactivity of the butenyltin compounds (neat, in solvents, in reaction mixture); assay type: physicochemical; conditions: for stability / reactivity in the synthesis mixture: crude reaction mixture, synthesis side-products; for stability as neat compound and in inert solvents: inert solvents (also ethanol)
From the text: Synthesis of the tetrabutenyltins presented no great difficulty as long as the Grignard reagent was present in large excess to assure complete alkylation. […] Under these conditions alkenyltin compounds were identified containing various numbers of […] groups in the mixture.
The other two tributenyltin bromides were stable as neat compounds, in inert solvents and in ethanol for a reasonable length of time. Chemical reactivity appeared to follow the order allyl > vinyl > alkyl.

[2] = Degradation in seawater protected from UV light at constant room temperature (half-life, GC MS); assay type: physicochemical; conditions: for stability in seawater relative to tributyltin bromide, absence of light: in words; for Half-life: protected from UV light, constant room temperature, estimated
Method: (§1) Degradation tests of the compounds included making ethanol solutions of the organotin bromides that were prepared at a concentration of approximately 1 mg/cm^3. Aliquots of the ethanol solutions were added to either 3.5% sodium bromide (NaBr) containing 1% acetone or to filtered seawater to obtain approximately 1-5 ppm concentrations in the seawater. The sodium bromide (NaBr) solution was placed in 125 cm^3 quartz tubes and exposed to sunlight over 48 h. The seawater solutions were kept in closed 500 cm^3 polycarbonate jars in the laboratory. Aliquots (10 cm^3) of the solutions were extracted at timed intervals with 1 cm^3 hexane after acidification with 0.1 cm^3 concentrated hydrochloric acid (HCl). Samples were analyzed by GC MS.
(§2) Half-lives of 33 days, 17 days and 16 days were estimated for tributyltin bromide, tri-3-butenyltin bromide and tri-1-butenyltin bromide in seawater, protected from UV light and held at a constant room temperature.

[3] = system: Photobacterium phosphoreum NRRL B-11177; experiment: Microtox toxicity bioassay: reduction in light output by a luminescent bacterium; assay type: cell-based; conditions: relative to tributyltin bromide, from EC50
Method: Relative toxicity of compounds was determined using a Microtox Toxicity Analyzer Model 2055, manufactured by Microbics Corporation, Carlsbad, Calif., USA. This bioassay measures the relative reduction in light output by a luminescent bacterium, Photobacterium phosphoreum NRRL B-11177, when exposed to a toxicant. The bacteria are provided in a convenient freeze-dried form by Microbics Corporation and are immediately activated by the addition of 1 cm^3 of distilled water.
For Microtox testing, stock solutions of the compounds were prepared in 95% ethanol at approximately 1-2 mg/cm^3 Appropriate amounts of the ethanol solutions were added to 2% aqueous sodium chloride (NaCl) to achieve a workable concentration while keeping the ethanol concentration as low as possible. Typically, the ethanol concentration was about 0.05%.
Serial dilutions of each compound for measurement were performed in the Microtox photometer/incubator at 15° C. Controls consist of triplicate 1 cm^3 portions of 2% sodium chloride and candidate toxics were prepared in and subsequently serially diluted in 2% sodium chloride, with a final volume of 1 cm^3 for each dilution. After a 5-minute period for temperature equilibration, 10 μl of rehydrated bacteria was added to each of the controls and the serial dilutions of the test compound. […]

[4] = Degradation on exposure to direct sunlight in quartz tubes (loss of compound after 48 h, GC MS); assay type: physicochemical; conditions: for loss of compound: exposure to direct sunlight, quartz tubes, seawater solutions, after 48 h; for stability in seawater relative to tributyltin bromide, presence of light: in words
Method: as §1, with “The sodium bromide (NaBr) solution was placed in 125 cm^3 quartz tubes and exposed to sunlight over 48 h. The seawater solutions were kept in closed 500 cm^3 polycarbonate jars in the laboratory.” left out
as §2

SMILES | stability / reactivity in the synthesis mixture [1] | stability as neat compound and in inert solvents [1] | stability in seawater relative to tributyltin bromide, absence of light [2] | Half-life [2] [days] | factor by which less toxic than tributyltin bromide [3] | loss of compound [4] | stability in seawater relative to tributyltin bromide, presence of light [4] | stability / reactivity in the synthesis mixture ([1]; listed as Tri-2-butenyltin bromide) | stability / reactivity in the synthesis mixture ([1]; listed as tri-2butenyltin bromide) | stability sufficient for degradation and toxicity determinations ([1]; in words) | order of chemical reactivity ([1]; allyl > vinyl > alkyl)
CCC=[CH][Sn]([Br])([CH]=CCC)[CH]=CCC [tri-1-butenyltin bromide] | tended spontaneously to form black precipitates during solvent evaporation of the crude mixture | stable as neat compounds and in inert solvents | less stable in seawater | 16 | about three | about 80% | less stable in seawater | – | – | – | –
CC=C[CH2][Sn]([Br])([CH2]C=CC)[CH2]C=CC [tri-2-butenyltin bromide] | – | – | – | – | – | – | – | so reactive with the synthesis side-products that it could not be isolated | highly reactive and therefore transient | too reactive for other than structural studies | –
C=CC[CH2][Sn]([Br])([CH2]CC=C)[CH2]CC=C [tri-3-butenyltin bromide] | tended spontaneously to form black precipitates during solvent evaporation of the crude mixture | stable as neat compounds and in inert solvents | less stable in seawater | 17 | six | ~100% | less stable in seawater | – | – | – | fell between tri-1-butenyltin bromide, containing vinylic carbons, and tributyltin bromide, the alkyl compound
CCC[CH2][Sn]([Br])([CH2]CCC)[CH2]CCC [tributyltin bromide, reference compound] | – | – | – | 33 | – | about 15% | – | – | – | – | –
